Measurements taken from patent publication US7064229B2, “Succinic acid derivatives” (Bayer Healthcare AG, priority 2001, dated 2006).

Assays:
[1] = molecular target: α4β1 integrin (VLA-4) on Ramos cells / recombinant human VCAM-1 (extracellular domains 1–3) (Homo sapiens, UniProt P05556+P13612); test: Adhesion of Ramos cells to immobilized VCAM-1 (domains 1–3); type: cell-based; set-up: host or cells: Ramos cells; conditions: Ramos VCAM-1 assay; observed IC50 value ranges
Source text: In Vitro Assay: Adhesion of Ramos Cells to Immobilized VCAM-1 (Domains 1–3) Preparation of VCAM-1 (Extracellular Domains 1–3)
Complementary DNA (cDNA) encoding 7-domain form of VCAM-1 (GenBank accession #M60335) was obtained using Rapid-Screen™ cDNA library panels (OriGene Technologies, Inc) at Takara Gene Analysis Center (Shiga, Japan). The primers used were 5′-CCAAGGCAGAGTACGCAAAC-3′ (sense) and 5′-TGGCAGGTATTATTAAGGAG-3′ (antisense). PCR amplification of the 3-domain VCAM-1 cDNA was perform using Pƒ. DNA polymerase (Stratagene) with the following sets of primers: (U-VCAMdl-3) 5′-CCATATGGTACCTGATCAATTTAAAATCGAGACCACCCCAGAA-3′; (L-VCAMdl-3) 5′-CCATATAGCAATCCTAGGTCCAGGGGAGATCTCAACAGTAAA-3′. PCR cycle was 94° C. for 45 sec, 55° C. for 45 sec, 72° C. for 2 min, repeating 15 cycles. After the purification of the PCR product, the fragment was digested with KpnI-AvrII. The digested fragment was ligated into pBluescript IISK(−) (Strategene), which was linearized by digesting with KpnI-XhoI. The ligation was followed by transformation to a Dam/Dcm methylase-free E. coli strain SCS110 (Strategene) to create the donor plasmid pHH7. To direct VCAM-1 molecule into the insect cell secretory pathway, the VCAM-1 coding sequence was fused to signal peptide sequence of honeybee melittin. The resulting melittin-VCAM fusion was placed in correct orientation to the baculovirus polyhedrin promoter. Baculovirus transfer vector containing first 3-domain form VCAM-1 (pH10) was constructed by ligation of 0.9 kb fragment from AvrII/Klenow/BclI digests of pH7 into SalI/Klenow/BamHI digests of pMelBacB (Invitrogen). […] The recombinant virus was amplified by infection to High-Five™ insect cells for 5–6 days, and virus titer was determined by plaque assay.
High-Five™ insect cells were pelleted in a 225 ml conical tube by centrifugation at 1000 rpm for 5 min. […] Protein concentration was determined by using Coomassie protein assay reagent (Pierce) according to the manufacture's instruction. […]
Preparation of Fluorescence Labeled Ramos Cells […]

Sequence of α4β1 integrin (VLA-4) on Ramos cells / recombinant human VCAM-1 (extracellular domains 1–3) (P13612 34-1032): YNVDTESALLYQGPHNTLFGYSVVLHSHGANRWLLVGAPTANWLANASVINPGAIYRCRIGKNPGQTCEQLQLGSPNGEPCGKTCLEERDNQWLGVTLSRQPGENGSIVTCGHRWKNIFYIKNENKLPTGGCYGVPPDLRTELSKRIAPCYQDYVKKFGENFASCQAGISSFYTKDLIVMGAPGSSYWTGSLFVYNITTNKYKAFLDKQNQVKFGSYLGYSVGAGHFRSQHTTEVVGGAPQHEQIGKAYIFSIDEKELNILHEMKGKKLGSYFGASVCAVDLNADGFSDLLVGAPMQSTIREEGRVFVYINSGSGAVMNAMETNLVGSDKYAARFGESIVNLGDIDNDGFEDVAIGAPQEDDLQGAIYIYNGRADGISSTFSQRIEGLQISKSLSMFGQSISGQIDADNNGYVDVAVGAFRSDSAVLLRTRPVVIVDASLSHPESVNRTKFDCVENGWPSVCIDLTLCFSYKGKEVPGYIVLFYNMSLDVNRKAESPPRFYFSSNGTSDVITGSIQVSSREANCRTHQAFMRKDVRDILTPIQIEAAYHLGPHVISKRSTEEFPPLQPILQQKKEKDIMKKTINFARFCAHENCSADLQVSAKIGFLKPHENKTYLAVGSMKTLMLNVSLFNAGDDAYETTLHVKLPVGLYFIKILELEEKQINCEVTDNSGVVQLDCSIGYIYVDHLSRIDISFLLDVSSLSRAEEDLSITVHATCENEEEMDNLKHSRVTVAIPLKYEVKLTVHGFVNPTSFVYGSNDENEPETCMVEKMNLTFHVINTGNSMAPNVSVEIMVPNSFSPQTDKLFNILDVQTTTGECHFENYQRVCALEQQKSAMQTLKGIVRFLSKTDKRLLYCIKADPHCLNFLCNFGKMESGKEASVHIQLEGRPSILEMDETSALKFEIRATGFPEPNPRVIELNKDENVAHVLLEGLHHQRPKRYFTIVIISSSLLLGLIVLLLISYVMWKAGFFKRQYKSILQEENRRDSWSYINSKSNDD
Sequence of α4β1 integrin (VLA-4) on Ramos cells / recombinant human VCAM-1 (extracellular domains 1–3) (P05556 21-798): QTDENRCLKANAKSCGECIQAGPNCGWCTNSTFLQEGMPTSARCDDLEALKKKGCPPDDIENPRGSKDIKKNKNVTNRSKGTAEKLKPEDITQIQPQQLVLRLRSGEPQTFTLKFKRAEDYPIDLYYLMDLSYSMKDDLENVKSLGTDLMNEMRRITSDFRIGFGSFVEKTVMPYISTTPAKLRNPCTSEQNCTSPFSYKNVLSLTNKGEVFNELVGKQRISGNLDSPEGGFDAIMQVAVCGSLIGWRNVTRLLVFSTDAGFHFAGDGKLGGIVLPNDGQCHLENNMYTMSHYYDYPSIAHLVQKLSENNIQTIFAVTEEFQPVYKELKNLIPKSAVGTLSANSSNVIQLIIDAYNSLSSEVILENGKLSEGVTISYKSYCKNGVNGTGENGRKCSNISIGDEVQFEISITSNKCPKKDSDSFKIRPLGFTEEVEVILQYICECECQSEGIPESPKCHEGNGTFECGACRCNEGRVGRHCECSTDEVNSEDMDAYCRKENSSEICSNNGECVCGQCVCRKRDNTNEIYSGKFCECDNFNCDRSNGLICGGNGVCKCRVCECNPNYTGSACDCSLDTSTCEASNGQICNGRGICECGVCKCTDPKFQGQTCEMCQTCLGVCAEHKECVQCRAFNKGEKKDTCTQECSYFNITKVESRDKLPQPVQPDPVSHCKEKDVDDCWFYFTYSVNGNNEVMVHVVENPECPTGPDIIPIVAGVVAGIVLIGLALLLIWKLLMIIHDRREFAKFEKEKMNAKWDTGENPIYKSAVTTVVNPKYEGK

IC50 [1] [µM] | melting point [°C] | SMILES
< 1 | 169 | Cc1ccccc1NC(=O)Nc1ccc(NC(=O)C(CC(=O)Nc2ccc(C(=O)O)cc2)c2ccccc2)cc1 (centres unmarked) [Example 1, 4-[(4-{[4-({[(2-Methylphenyl)amino]carbonyl}amino)phenyl]-amino}-4-oxo-3-phenylbutanoyl)amino]benzoic acid]
> 10 |  | Cc1ccccc1NC(=O)Nc1ccc(NC(=O)CC(C(=O)Nc2ccc(C(=O)O)cc2)c2ccccc2)cc1 (centres unmarked) [Example 2, 4-[(4-{[4-({[(2-Methyl-phenyl)amino]carbonyl}-ami-no)phenyl]amino}-4-oxo-2-phenyl-butanoyl)amino]benzoic acid]
< 1 | 126 | Cc1ccccc1NC(=O)Nc1ccc(CNC(=O)CC(C(=O)Nc2ccc(C(=O)O)cc2)c2ccccc2)cc1 (centres unmarked) [Example 4, 4-[(4-{[4-({[(2-Methyl-phenyl)amino]carbonyl}-ami-no)benzyl]amino}-4-oxo-2-phenyl-butanoyl)-ami-no]benzoic acid]
